Data taken from patent US20220386606A1, “SPECIFICALLY SUBSTITUTED 3-PHENYL-5-SPIROCYCLOPENTYL-3-PYRROLIN-2-ONES AND THEIR USE AS HERBICIDES” (Bayer Aktiengesellschaft, priority 2019, published 2022).

Tests used:
ECHCG [1] = test: Post-emergence herbicidal action against ECHCG; type: in vivo, Echinochloa crus-galli; conditions: 80 g/ha, visual assessment about 3 weeks after treatment vs untreated controls
Outline: (§1)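 Herbicidal action is rated visually in percent against untreated controls, where 100% means dead plants and 0% means no difference. Ratings come about 3 weeks after foliar spraying of one-leaf-stage plants with aqueous WP or EC preparations plus 0.2% wetting agent at 600 to 800 l/ha.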

SETVI [2] = test: Post-emergence herbicidal action against SETVI; type: in vivo, Setaria viridis; conditions: 80 g/ha, visual assessment about 3 weeks after treatment vs untreated controls
Outline: as §1

ECHCG [3] = test: Pre-emergence herbicidal action against ECHCG; type: in vivo, Echinochloa crus-galli; conditions: 320 g/ha, scored visually after 3 weeks vs untreated controls
Outline: (§2)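 Percent activity (0% = like control, 100% = dead) read visually after a 3-week greenhouse period. Application: aqueous WP or EC formulations sprayed onto soil covering sown seeds, water rate 600 to 800 L/ha with 0.2% wetting agent.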

DIGSA [4] = test: Pre-emergence herbicidal action against DIGSA; type: in vivo, Digitaria sanguinalis; conditions: 320 g/ha, scored visually after 3 weeks vs untreated controls
Outline: as §2

LOLRI [5] = test: Pre-emergence herbicidal action against LOLRI (Table 8, titled post-emergence at 320 g/ha); type: in vivo, Lolium rigidum; conditions: table stands in the pre-emergence section
Outline: as §2

AMARE = test: Pre-emergence herbicidal action against AMARE; type: in vivo, Amaranthus retroflexus; conditions: 320 g/ha
Outline: as §2

POLCO = test: Pre-emergence herbicidal action against POLCO; type: in vivo, Polygonum convolvulus; conditions: 320 g/ha
Outline: as §2

ALOMY [6] = test: Pre-emergence herbicidal action against ALOMY; type: in vivo, Alopecurus myosuroides; conditions: 320 g/ha, scored visually after 3 weeks vs untreated controls
Outline: as §2

ABUTH [7] = test: Post-emergence herbicidal action against ABUTH; type: in vivo, Abutylon threophrasti; conditions: 80 g/ha, visual assessment about 3 weeks after treatment vs untreated controls
Outline: as §1

DIGSA [8] = test: Post-emergence herbicidal action against DIGSA; type: in vivo, Digitaria sanguinalis; conditions: 80 g/ha, visual assessment about 3 weeks after treatment vs untreated controls
Outline: as §1

AVEFA [9] = test: Pre-emergence herbicidal action against AVEFA; type: in vivo, Avena fatua; conditions: 320 g/ha, scored visually after 3 weeks vs untreated controls
Outline: as §2

ABUTH [10] = test: Pre-emergence herbicidal action against ABUTH; type: in vivo, Abutylon threophrasti; conditions: 320 g/ha
Excerpt: Seeds of monocotyledonous and dicotyledonous weed plants and crop plants are laid out in sandy loam soil in wood-fiber pots and covered with soil. The compounds of the invention, formulated in the form of wettable powders (WP) or as emulsion concentrates (EC), are then applied to the surface of the covering soil as aqueous suspension or emulsion at a water application rate equating to 600 to 800 L/ha with addition of 0.2% wetting agent.
After the treatment, the pots are placed in a greenhouse and kept under good growth conditions for the trial plants. The damage to the test plants is scored visually after a test period of 3 weeks by comparison with untreated controls (herbicidal activity in percent (%): 100% activity=the plants have died, 0% activity=like control plants).

AVEFA [11] = test: Post-emergence herbicidal action against AVEFA; type: in vivo, Avena fatua; conditions: 80 g/ha, visual assessment after about 3 weeks
Outline: as §1

SETVI [12] = test: Pre-emergence herbicidal action against SETVI; type: in vivo, Setaria viridis; conditions: 320 g/ha, scored visually after 3 weeks vs untreated controls
Outline: as §2

LOLRI [13] = test: Post-emergence herbicidal action against LOLRI; type: in vivo, Lolium rigidum; conditions: 80 g/ha, visual assessment about 3 weeks after treatment vs untreated controls
Outline: as §1

VIOTR [14] = test: Pre-emergence herbicidal action against VIOTR; type: in vivo, Viola tricolor; conditions: 320 g/ha
Outline: as §2

ALOMY [15] = test: Post-emergence herbicidal action against ALOMY; type: in vivo, Alopecurus myosuroides; conditions: 80 g/ha, visual assessment after about 3 weeks
Outline: as §1

VIOTR [16] = test: Post-emergence herbicidal action against VIOTR; type: in vivo, Viola tricolor; conditions: 80 g/ha, visual assessment about 3 weeks after treatment vs untreated controls
Procedure: Seeds of monocotyledonous and dicotyledonous weed and crop plants are laid out in sandy loam soil in wood-fiber pots, covered with soil and cultivated in a greenhouse under good growth conditions. 2 to 3 weeks after sowing, the test plants are treated at the one-leaf stage. The compounds of the invention, formulated in the form of wettable powders (WP) or as emulsion concentrates (EC), are then sprayed onto the green parts of the plants as aqueous suspension or emulsion at a water application rate equating to 600 to 800 l/ha with addition of 0.2% wetting agent. After the test plants have been left to stand in the greenhouse under optimal growth conditions for about 3 weeks, the action of the preparations is assessed visually in comparison to untreated controls (herbicidal action in percent (%): 100% activity=the plants have died, 0% activity=like control plants).

MATIN = test: Pre-emergence herbicidal action against MATIN; type: in vivo; conditions: 320 g/ha
Outline: as §2

VERPE = test: Pre-emergence herbicidal action against VERPE; type: in vivo, Veronica persica; conditions: 320 g/ha
Outline: as §2

SMILES | Post-emergence action against ECHCG in % (ECHCG [1]) [%] | Post-emergence action against SETVI in % (SETVI [2]) [%] | Pre-emergence action against ECHCG in % (ECHCG [3]) [%] | Pre-emergence action against DIGSA in % (DIGSA [4]) [%] | Pre-emergence herbicidal action against LOLRI in % (LOLRI [5]) [%] | Pre-emergence action against AMARE in % (AMARE) [%] | Pre-emergence action against POLCO in % (POLCO) [%] | Pre-emergence action against ALOMY in % (ALOMY [6]) [%] | Post-emergence action against ABUTH in % (ABUTH [7]) [%] | Post-emergence action against DIGSA in % (DIGSA [8]) [%] | Pre-emergence action against AVEFA in % (AVEFA [9]) [%] | Pre-emergence action against ABUTH in % (ABUTH [10]) [%] | Post-emergence action against AVEFA in % (AVEFA [11]) [%] | Pre-emergence action against SETVI in % (SETVI [12]) [%] | Post-emergence action against LOLRI in % (LOLRI [13]) [%] | Pre-emergence action against VIOTR in % (VIOTR [14]) [%] | Post-emergence action against ALOMY in % (ALOMY [15]) [%] | Post-emergence action against VIOTR in % (VIOTR [16]) [%] | Pre-emergence action against MATIN in % (MATIN) [%] | Pre-emergence action against VERPE in % (VERPE) [%]
CC#Cc1cc(C)c(C2=C(O)C3(CCC(COC)C3)NC2=O)c(Br)c1 (centres unmarked) [Example I-18] | 100 | 100 | 100 | 100 | 100 | 100 | 100 | 100 | 80 | 100 | 100 | 80 | 100 | 100 | 100 | 100 | 100 | – | – | –
C=CCOCC1CCC2(C1)NC(=O)C(c1c(C)cc(C#CC)cc1OC)=C2O (centres unmarked) [Example I-47] | 100 | – | 100 | 100 | 100 | – | – | 100 | – | – | 90 | – | 90 | 100 | 100 | 100 | 100 | 100 | – | –
CC#Cc1cc(Br)c(C2=C(OC(=O)OCC)C3(CCC(COC)C3)NC2=O)c(OC)c1 (centres unmarked) [Example P-08] | 100 | 100 | 100 | 100 | 100 | – | 100 | 100 | 80 | 100 | 100 | 80 | – | 100 | 100 | 90 | 100 | – | 80 | 90
CC#Cc1cc(C)c(C2=C(OC(=O)C(C)C)C3(CCC(COC)C3)NC2=O)c(Br)c1 (centres unmarked) [Example P-32] | 100 | 100 | 100 | 100 | 100 | 90 | 80 | 100 | 90 | 100 | 90 | 80 | 90 | 100 | 100 | 100 | 100 | – | 80 | 90
